Legend:
[1] = tested on: BJ-TERT/LT/ST/RAS^V12 cells; assay: Suppression of erastin-induced cell death (suppressor screen and follow-up); type: cell-based, human; details: co-treatment with erastin
[2] = tested on: BJ-TERT/LT/ST/RAS^V12 cells; assay: Cell death, viable cells counted using a hemacytometer; type: cell-based, human; details: 13 μM erastin A1, 23 μM antimycin, 126 μM 2-methoxyestradiol or the combinations
[3] = target: T1, murine VDAC3 (Mus musculus, UniProt Q60931); assay: NADH oxidation assay in mitochondria from yeast expressing VDAC3; type: biochemical; details: mitochondria from yeast expressing VDAC3 in place of yeast VDAC
T1 construct: expressed in transfected cells; host or cells: yeast (S. cerevisiae) with murine VDAC3 in place of yeast VDAC; isolated mitochondria
T1 sequence (Q60931 1-283): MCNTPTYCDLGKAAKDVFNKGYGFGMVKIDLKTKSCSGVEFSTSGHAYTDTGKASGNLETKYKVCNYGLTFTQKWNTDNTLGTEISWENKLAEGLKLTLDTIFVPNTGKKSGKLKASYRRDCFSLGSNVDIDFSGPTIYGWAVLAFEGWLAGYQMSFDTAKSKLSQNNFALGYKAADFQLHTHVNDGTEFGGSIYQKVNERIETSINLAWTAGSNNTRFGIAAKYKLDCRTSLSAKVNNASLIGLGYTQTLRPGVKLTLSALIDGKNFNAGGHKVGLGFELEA
Procedure: In certain embodiments, mitochondria can be purified from yeast that had been engineered to express murine or human VDAC3 in place of yeast VDAC.
Mitochondria were isolated from yeast expressing murine VDAC3 in place of yeast VDAC. The rate of NADH oxidation by an inner membrane NADH dehydrogenase was determined by measuring the change in NADH absorbance over time. Mitochondria with a disrupted outer membrane show an increased rate of NADH oxidation (red, shocked) compared to untreated mitochondria (green).
NADH oxidation in the mitochondria was measured by resuspending mitochondria isolated from yeast in R-buffer (0.65 M sucrose, 10 mM HEPES (pH 7.5), 10 mM KH2PO4, 5 mM KCl, 5 mM, MgCl2) to a final concentration of 100 μg/ml. Mitochondrial concentration was measured by dissolving mitochondria in 0.6% SDS and reading absorbance at 280 nm. The mitochondrial suspension was then incubated with 25 μM NADH, and the absorbance at 340 nm monitored over a 15 minute period. The assay was repeated in the presence of erastin. To assess mitochondrial intactness, a parallel assay was run in which mitochondria were hypotonically shocked prior to addition of NADH. The mitochondrial pellet was resuspended in dH2O and incubated on ice for 3 minutes to disrupt the outer mitochondrial membrane. 2× R-buffer was then added to restore normal osmotic conditions.

[4] = tested on: BJ-TERT/LT/ST/RAS^V12 cells; assay: Alamar Blue viability assay; type: cell-based, human; details: BJ-TERT/LT/ST/RAS^V12 cells versus BJ-TERT cells
Procedure: (a) Calu-1 lung carcinoma cells harboring oncogenic KRAS were infected with lentivirus containing shRNAs targeting KRAS or GFP. Sequences of shRNAs are indicated by starting nucleotide (nt) in the KRAS mRNA coding sequence. Cells were treated with erastin and viability measured by Trypan Blue exclusion. (b) Knockdown of KRAS was confirmed by western blot. (c,d) A673 cells harboring oncogenic BRAF were infected with lentiviral shRNAs targeting BRAF exon 5 (c) or the 5′ UTR (d), luciferase (LUC) (c) or GFP (d). Cells were treated with erastin and viability measured using Alamar Blue (c) and Trypan Blue (d). (e) Knockdown of BRAF was confirmed by western blot. […] BJ-TERT/LT/ST/RAS^V12 cells were treated with erastin alone or in with a MEK inhibitor U0126 (20 μM), MEK inhibitor I (10 μM) or MEK 1/2 inhibitor (50 μM). After 48 h, viability was determined using Trypan Blue. (g) Structures of certain erastin and related analogs. (h) and (i) Dose-response curves were measured for erastin A3 and erastin B2 in BJ-TERT/LT/ST/RAS^V12 cells (black squares) or BJ-TERT cells (grey circles). (j) Calu-1 lung carcinoma cells harboring oncogenic KRAS were infected with lentivirus containing shRNAs targeting KRAS or GFP. Sequences of shRNAs are indicated by starting nucleotide (nt) in the KRAS mRNA coding sequence. Cells were treated with erastin and viability (y-axis) measured by Trypan Blue exclusion. Cells were treated with erastin for 24 hours, and percent inhibition of viability (y-axis) measured using Alamar Blue (k) and Trypan Blue (l). (m) Structures of erastin and related analogs. (n) Dose-response curves were measured for erastin A6, erastin B2, erastin A8 and erastin A9 in BJ-TERT/LT/ST/RAS^V12 cells (squares) or BJ-TERT cells (circles) using Alamar Blue.
Alamar Blue metabolism: 10% Alamar Blue was added to assay plates, which were then incubated for an additional 16 hours. Red fluorescence, resulting from reduction of Alamar Blue, was detected on a Victor3 platereader (ex: 530, em: 590).
Table 2. Activity of RAS-selective lethal compound erastin in tumor cell lines. IC50 values (ng/mL) are shown using the Alamar Blue viability assay. BJ engineered tumor cells express TERT, LT, ST, and oncogenic RAS. Isogenic RAS^V12 lacking cells are identical but lack HRAS^V12. BJ-DRD cells are derived from BJ cells and contain TERT, oncogenic RAS, a truncated from of p53 (p53DD) that disrupts the tetramerization of endogenous p53, a CDK4(R24C) mutant resistant to inhibition by p16INK4A and p151NK4B (the major negative regulators of CDK4) and cyclin D1. These latter protein substitute for LT. HCT-116, A549, Calu-1, and MIA PaCa-2 are tumor cells derived from cancers (colon, lung, lung and pancreatic, respectively) known to have activating mutations in RAS.

[5] = target: T2, VDAC2 (Homo sapiens, UniProt P45880); assay: VDAC2 binding assay (competition with radiolabelled erastin A9); details: competition with tritium-labeled erastin A9
T2 construct: hexahistidine (pET-15b, thrombin site) (N); made in house; host or cells: E. coli
T2 sequence (P45880 1-294): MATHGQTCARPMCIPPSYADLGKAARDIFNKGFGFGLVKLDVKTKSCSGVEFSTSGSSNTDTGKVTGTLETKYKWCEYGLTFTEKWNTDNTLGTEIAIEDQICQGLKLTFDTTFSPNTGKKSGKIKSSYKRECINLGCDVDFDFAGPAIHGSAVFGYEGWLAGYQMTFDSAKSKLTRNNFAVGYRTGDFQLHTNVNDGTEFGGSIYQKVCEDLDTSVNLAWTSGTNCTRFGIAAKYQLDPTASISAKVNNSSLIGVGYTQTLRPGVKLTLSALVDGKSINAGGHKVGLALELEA
Procedure: Given the interactions between erastin and VDAC using affinity-based target identification and VDAC functional assays, the direct binding of erastin to VDACs was investigated.
VDAC2 protein was isolated from E. coli using a modified version of the protocol originally described by Koppel et al. Bacterial cultures were grown in LB containing 50 mg/L ampicillin to an OD of 0.6, and induced using […] IPTG overnight. Cultures were harvested by centrifugation at 6000×g for 10 min. The pellet was then washed with dH2O and resuspended in buffer (20% sucrose, 20 mM Tris, pH 8.0, […] lysozyme) and incubated at 25° C. for 10 minutes. The lysate was then sonicated for 2×30 seconds and centrifuged at 15000×g for 20 minutes. The pellet was resuspended in resuspension buffer (4.5 M guanidine-HCl, 0.1M NaCl, 20 mM Tris, pH 8.0) and incubated for 1 hour at 25° C. The suspension was then centrifuged (20 minutes, 15000×g), and the supernatant was loaded on a NI-NTA Superflow column (Qiagen) pre-equilibrated with 5 volumes of resuspension buffer. The column was washed with 5 column volumes of resuspension buffer containing 10 mM imidazole. The protein was then eluted using resuspension buffer containing 225 mM imidazole. The eluate was dialysed against 0.1 M NaCl, 20 mM Tris, pH 8.0, and 2% LDAO (Fluka) overnight, and then concentrated via centrifugation to 4 mg/mL.
To assay direct binding of erastin analogs, 40 μg of purified VDAC2 was resuspended in 100 μL of Binding Buffer (25 mM HEPES, pH 8.0, 0.1% BSA, 7 mM MgCl2, 15 mM NaCl), and incubated in the presence of 20 μM radiolabelled erastin A9 and erastin A9 or erastin A8 for 15 minutes. The mixture was then deposited onto Protran BA85 0.45 μM binding filters (Whatman) using vacuum filtration. The filter was rinsed 5 times with 1 mL wash buffer (25 mM HEPES, 0.1% BSA), and then incubated in 5 mL scintillation liquid (Cytoscint, MP Biomedicals). Radioactivity was detected on a LKB Wallac 1211 RACKBETA Liquid Scintillation Counter.

[6] = tested on: PARP1; assay: PARP1 cleavage (western blot); type: cell-based, human; details: BJ-TERT/LT/ST/RAS^V12 cells; staurosporine 1 μM 6 h, camptothecin 1 μM 18 h, erastin 20 μg/mL
Procedure: BJ-TERT/LT/ST/RAS^V12 tumor cells were seeded in six-well dishes, incubated overnight at 37° C. with 5% CO2 and were treated with nothing (NT), staurosporine (ST, 1 μM) for 6 h, camptothecin (C, 1 μM) for 18 h, or erastin (20 μg/mL) for the indicated time, lysed and analyzed by western blot with an anti-PARP1 antibody. A relatively high concentration of erastin was used to ensure loss of PARP cleavage was not due to a concentration-dependent effect.
BJ-TERT/LT/ST/RAS^V12 cells were seeded in polystyrene 100×20 mm dishes (Falcon/#353003) in 10 ml of media. Three million cells were seeded in each dish. After overnight incubation at 37° C. with 5% CO2, BJ-TERT/LT/ST/RAS^V12 cells were treated with nothing, staurosporine (1 μM) for 6 h, camptothecin (1 μM) for 18 h or erastin (20 μg/mL) for 6, 10, 12, 12.5, 13, 14, 18 or 26 h, and prepared for western blotting.

[7] = tested on: BJ-TERT/LT/ST/RAS^V12 cells; assay: Annexin V staining; type: cell-based, human; details: camptothecin 1 μM
Procedure: The percentage of cells in the indicated Ml region were 6%, 6%, and 38% in untreated, erastin-treated (9 μM), and camptothecin-treated (1 μM), respectively.

[8] = tested on: cytochrome c; assay: Cytochrome c release from mitochondria; type: cell-based, human; details: BJ-TERT/LT/ST/RAS^V12 cells; staurosporine 1 μM or erastin 20 μg/mL, 6 h
Procedure: BJ-TERT/LT/ST/RAS^V12 cells were seeded in polystyrene 100×20 mm dishes in 10 ml media. After overnight incubation at 37° C. with 5% CO2, the cells were treated with nothing (NT), staurosporine (ST, 1 μM) or erastin (20 μg/mL) for 6 h, washed with 10 mL ice-cold PBS and lysed by passage through a 25-gauge needle (five strokes). Cell lysates were centrifuged at 1850 rpm for 5 min at 4° C. to remove the nuclear fraction. Mitochondria were removed from the soluble cytosolic fraction by pelleting at 10,000 rpm. Supernatant and mitochondrial pellets were solubilized in SDS-PAGE loading buffer and analyzed by western blot using anti-cytochrome c and pan-VDAC antibodies and IR-dye-linked secondary antibodies. VDACs are mitochondrial proteins, so their absence in the cytosolic lane indicates effective separation of cytosol (C) from mitochondria (M). Fluorescence was detected on a LI-COR Odyssey infrared scanner.
For the cytochrome c release assay, cells were washed with 10 mL of ice-cold PBS, suspended in 120 μL of buffer (300 mM sucrose, 0.1% BSA, 10 mM HEPES, pH 7.5, 10 mM KCl, 1.5 mM MgCl2, 1 mM EGTA, 1 mM EDTA, 1 mM dithiothreitol, 2 mM phenylmethanesulfonyl fluoride and 1 protease inhibitor tablet (Roche)) and incubated on ice for 15 min. […] Supernatant and mitochondrial pellets were solubilized in SDS-PAGE loading buffer and analyzed by western blotting.

Compound	Effect on erastin-induced cell death [1]	Cell death (%) [2] [%]	PARP1 cleavage [6]	other results
COc1cc2c(cc1O)CC[C@@H]1[C@@H]2CC[C@]2(C)[C@@H](O)CC[C@@H]12 [2-ME, 2-methoxyestradiol]	partially suppressed erastin-induced cell death	66	–	–
CCOc1ccccc1-n1c(C(C)N2CCN(C(C)=O)CC2)nc2ccccc2c1=O (centres unmarked) [erastin A8, 2-[1-(4-Acetyl-piperazin-1-yl)-ethyl]-3-(2-ethoxy-phenyl)-3H-quinazolin-4-one]	–	–	–	Rate of NADH oxidation / permeability of outer mitochondrial membrane to NADH [3]: had no effect on mitochondrial membrane permeability; Selective lethality / activity of erastin analog [4]: inactive; Direct binding to VDAC2 [5]: unlike the inactive erastin A8, directly binds VDAC2
antimycin	partially suppressed erastin-induced cell death	51	–	–
CC[C@@]1(O)C(=O)OCc2c1cc1n(c2=O)Cc2cc3ccccc3nc2-1 [camptothecin, reference compound]	–	–	degraded	percentage of cells in M1 region (Annexin V staining) [7]: 38%
CN[C@@H]1C[C@H]2O[C@@](C)([C@@H]1OC)n1c3ccccc3c3c4c(c5c6ccccc6n2c5c31)C(=O)NC4 [staurosporine, reference compound]	–	–	cleaved from 110 kD to 85 kD	Cytochrome c release from mitochondria [8]: released
